According to patent EP3623369A1, “NOVEL MORPHOLINYL AMINE COMPOUNDS FOR THE TREATMENT OF AUTOIMMUNE DISEASE” (F. Hoffmann-La Roche AG, priority 2018, dated 2020):

Each molecule was assayed against T1, hTLR9 (Homo sapiens, UniProt Q9NR96) (assay: HEK293-Blue-hTLR-9 cells assay (SEAP reporter, ODN2006 stimulation)). Conditions: HEK293-Blue-hTLR9 cells, ODN2006, 20 hrs; 0.032 is the lowest tested concentration; read-out: HEK/hTLR9 IC50.
T1 sequence (Q9NR96 26-1032): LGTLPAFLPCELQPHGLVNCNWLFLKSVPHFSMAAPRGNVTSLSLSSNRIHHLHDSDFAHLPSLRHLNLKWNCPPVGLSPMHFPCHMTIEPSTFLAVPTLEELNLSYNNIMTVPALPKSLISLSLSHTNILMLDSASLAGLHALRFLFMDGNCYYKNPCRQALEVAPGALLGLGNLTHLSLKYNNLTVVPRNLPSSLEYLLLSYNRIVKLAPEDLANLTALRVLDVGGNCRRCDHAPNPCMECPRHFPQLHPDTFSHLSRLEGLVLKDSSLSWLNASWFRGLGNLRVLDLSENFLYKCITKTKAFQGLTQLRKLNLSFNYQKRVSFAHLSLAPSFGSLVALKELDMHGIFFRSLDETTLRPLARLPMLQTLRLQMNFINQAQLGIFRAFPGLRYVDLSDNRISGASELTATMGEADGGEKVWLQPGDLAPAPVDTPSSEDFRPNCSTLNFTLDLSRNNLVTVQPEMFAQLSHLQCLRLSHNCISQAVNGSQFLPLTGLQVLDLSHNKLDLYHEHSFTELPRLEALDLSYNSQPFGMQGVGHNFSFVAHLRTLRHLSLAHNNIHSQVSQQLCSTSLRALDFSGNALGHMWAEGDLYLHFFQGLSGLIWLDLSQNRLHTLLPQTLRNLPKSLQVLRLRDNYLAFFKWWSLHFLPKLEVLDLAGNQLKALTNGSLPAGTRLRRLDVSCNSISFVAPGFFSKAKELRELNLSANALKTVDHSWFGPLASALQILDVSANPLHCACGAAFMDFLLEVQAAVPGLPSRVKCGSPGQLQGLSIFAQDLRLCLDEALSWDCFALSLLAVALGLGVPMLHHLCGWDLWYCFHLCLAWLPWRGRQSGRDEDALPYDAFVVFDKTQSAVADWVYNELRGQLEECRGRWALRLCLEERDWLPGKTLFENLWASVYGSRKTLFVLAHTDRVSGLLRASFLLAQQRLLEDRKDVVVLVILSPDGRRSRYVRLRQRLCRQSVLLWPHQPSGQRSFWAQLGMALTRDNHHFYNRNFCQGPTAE
Format: cell-based
Outline: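 HEK293-Blue cells with an NF-κB/AP-1-driven SEAP reporter were exposed to serially diluted compound (1% DMSO final) plus ODN2006 for 20 h at 37 °C. Supernatant SEAP was developed with QUANTI-Blue for 2 h at 37 °C and absorbance read at 620–655 nm; antagonism appears as reduced reporter signal.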

Compound | IC50 [µM]
C[C@@H]1CN(c2ccc(Cl)c3nccnc23)C[C@H](CN2Cc3ccc(N4CCNCC4)cc3C2)O1 [Example 33, (2R,6S)-4-(8-chloroquinoxalin-5-yl)-2-methyl-6-[(5-piperazin-1-ylisoindolin-2-yl)methyl]morpholine] | 0.174
C[C@@H]1CN(c2ccc(C#N)n3ncc(F)c23)C[C@H](CN2Cc3cc(N4CCNCC4)cnc3C2)O1 [Example 29, 3-fluoro-4-[(2R,6S)-2-methyl-6-[(3-piperazin-1-yl-5,7-dihydropyrrolo[3,4-b]pyridin-6-yl)methyl]morpholin-4-yl]pyrazolo[1,5-a]pyridine-7-carbonitrile] | 0.134
C[C@@H]1CN(c2ccc(C#N)c3ncccc23)C[C@H](CN2Cc3ccc(N4C5CCC4CNC5)cc3C2)O1 [Example 43, 5-[(2S,6R)-2-[[5-(3,8-diazabicyclo[3.2.1]octan-8-yl)isoindolin-2-yl]methyl]-6-methyl-morpholin-4-yl]quinoline-8-carbonitrile] | 0.088

More lines, in order of falling IC50, values ahead:

IC50 [µM] | Compound
0.117 | C[C@@H]1CN(c2ccc(C#N)n3ncc(F)c23)C[C@H](CN2CCc3cc(N4CCNCC4)ccc3C2)O1 [Example 14, 3-fluoro-4-[(2R,6S)-2-methyl-6-[(6-piperazin-1-yl-3,4-dihydro-1H-isoquinolin-2-yl)methyl]morpholin-4-yl]pyrazolo[1,5-a]pyridine-7-carbonitrile]
0.093 | C[C@@H]1CN(c2ccc(C#N)n3nccc23)C[C@H](CN2Cc3ccc(OCCN(C)C)cc3C2)O1 [Example 28, 4-[(2S,6R)-2-[[5-[2-(dimethylamino)ethoxy]isoindolin-2-yl]methyl]-6-methyl-morpholin-4-yl]pyrazolo[1,5-a]pyridine-7-carbonitrile]
0.06 | C[C@@H]1CN(c2ccc(C#N)c3ncccc23)C[C@H](CN2Cc3ccc(N4CCNCC4CO)cc3C2)O1 (stereo partly drawn) [Example 73, 5-[(2S,6R)-2-[[5-[2-(hydroxymethyl)piperazin-1-yl]isoindolin-2-yl]methyl]-6-methyl-morpholin-4-yl]quinoline-8-carbonitrile]
